The record followed here is ChEMBL document CHEMBL5375972, “Discovery of Novel 2,3-Dihydro-1H-indene-5-sulfonamide NLRP3 Inflammasome Inhibitors Targeting Colon as a Potential Therapy for Colitis” (J Med Chem, 2023).

Structures are written as SMILES. Activity calls are given as the source filed them. The calls are words filed in the database; no cut-off is given here.

The nature of data set [1]: Stability of compound in rat liver measured for 48 hrs. It counts as ADME, tissue-based.
Data set [2] can be described thus: Drug distribution in Sprague-Dawley rat brain at 1 mg/kg,iv measured for 0.5 to 2 hrs by HPLC-MS/MS analysis. To be noted: in vivo, time 0.5-2 hrs. Type of data set: ADME, organism-based.
In another data set the test system is Mus musculus. The experiment in a line: Anti-inflammatory activity in DSS-induced ulcerative colitis C57BL/6 mouse model assessed as decrease in IL-18 expression in colon at 10 mg/kg,ip administrated for 9 days by immunohistochemistry analysis. Type of data set: functional, organism-based. As to conditions: time 9.0 day.
A short description of data set [3]: Acute toxicity in Kunming mouse model assessed as change in body weight at 2000 mg/kg,IG administration for 7 days. It counts as organism-based. To be noted: in vivo, po, 168 h, time 7 day.
The nature of data set [4]: Acute toxicity in Kunming mouse model assessed as clonic convulsion at 1000 mg/kg,IG administration for 7 days. As to conditions: in vivo, po, 168 h, time 7 day. Type of data set: organism-based.
Data set [5] in a line: Acute toxicity in Kunming mouse model assessed as ruffled fur at 1000 mg/kg,IG administration for 7 days. It counts as organism-based. To be noted: in vivo, po, 168 h, time 7 day.
Data set [6] can be described thus: Subacute toxicity in C57BL/6 mouse assessed as change in kidney weight at 100 mg/kg,ip administrated for 14 days. Type of data set: organism-based. As to conditions: in vivo, 336 h, time 14 day.
Data set [7] is described as follows: Subacute toxicity in C57BL/6 mouse assessed as liver histological changes at 100 mg/kg,ip administrated for 14 days. It counts as organism-based. To be noted: in vivo, 336 h, time 14 day.

In the case of `CCCNS(=O)(=O)c1ccc2c(c1)CC(N(Cc1cc(Cl)ccc1OCCOC)C(=O)c1cc3ccccc3o1)C2` (racemic), the Stability result in data set [1] is on record as “Stable”. Further, in data set [2], the Drug uptake result is “Active”. The outcome in the data set on Mus musculus was Active. The Activity entry in data set [3], in data set [4], in data set [5], in data set [6] and in data set [7] was “Non-Toxic” throughout.
